These results are taken from PubChem BioAssay AID330 (DTP/NCI, 2004).

The assay concerns P388 leukemia ip, CD2F1 mice, survival T/C. Description: NCI In Vivo Anticancer Drug Screen. Data for tumor model P388 Leukemia (intraperitoneal) in CD2F1 (CDF1) mice. As to conditions: endpoint: median survival time, higher = longer survival. Summed up: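 Mice carrying the transplanted tumor received test compound or vehicle. Survival was recorded in each group, and the value is the treated-group measurement divided by that of the vehicle-treated control group.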

[1] abbreviates: dose: 100.0 mg/kg/injection, schedule: Q04DX003 (ip), vehicle: saline with Tween-80.
Setting [2] is: dose: 60.0 mg/kg/injection, schedule: Q01DX005 (ip), vehicle: saline with Tween-80.
Where [3] appears, read: dose: 120.0 mg/kg/injection, schedule: Q01DX005 (ip), vehicle: saline with Tween-80.
The mark [4] stands for this setting: dose: 240.0 mg/kg/injection, schedule: Q01DX005 (ip), vehicle: saline with Tween-80.
The mark [5] stands for this setting: dose: 50.0 mg/kg/injection, schedule: Q01DX009 (ip), vehicle: saline.
The mark [6] stands for this setting: dose: 100.0 mg/kg/injection, schedule: Q01DX009 (ip), vehicle: saline.

Values joined by “and” are separate entries in the source; they are usually repeats but may differ in a detail not shown here. Equal entries are not always repeated. Inconclusive results and toxic doses are left out.

On to `Cc1cccc(C(=O)/C=C2/CCCN2C)c1`, for which the T/C by setting is: under setting [1], 110 % of control; (dose: 200.0 mg/kg/injection, schedule: Q04DX003 (ip), vehicle: saline with Tween-80) 93 % of control.

In the case of `O=C(Nc1ccc(O)c(C(=O)O)c1)Oc1ccc([N+](=O)[O-])cc1`, the T/C reads like this: under setting [2], 102 % of control; under setting [3], 107 % of control; under setting [4], 94 % of control.

For the compound `CCC(NCC(C)C)NCC(C)C`, the T/C (dose: 25.0 mg/kg/injection, schedule: Q04DX003 (ip), vehicle: saline) is 100 % of control; the T/C (dose: 50.0 mg/kg/injection, schedule: Q04DX003 (ip), vehicle: saline) is 109 % of control; the T/C (dose: 100.0 mg/kg/injection, schedule: Q04DX003 (ip), vehicle: saline) was 95 % of control.

Regarding `CSC(C#N)(c1ccccc1)N(C)C` (stereo not given), the T/C by setting is: (dose: 25.0 mg/kg/injection, schedule: Q04DX003 (ip), vehicle: suspension in saline) 106 % of control; (dose: 50.0 mg/kg/injection, schedule: Q04DX003 (ip), vehicle: suspension in saline) 103 % of control; under setting [1], 103 % of control; (dose: 100.0 mg/kg/injection, schedule: Q04DX003 (ip), vehicle: suspension in saline) 96 % of control.

On to `CCC1(/C=N/NC(N)=S)NC(=O)NC1=O` (stereo not given), for which the T/C (dose: 50.0 mg/kg/injection, schedule: Q01DX005 (ip), vehicle: saline with Tween-80) was 93 % of control; the T/C (dose: 100.0 mg/kg/injection, schedule: Q01DX005 (ip), vehicle: saline with Tween-80) was 89 % of control; the T/C (dose: 200.0 mg/kg/injection, schedule: Q01DX005 (ip), vehicle: saline with Tween-80) was 94 % of control.

For `COc1cccc2ccc(-c3ccccc3)[s+]c12`, the T/C is, setting by setting: (dose: 60.0 mg/kg/injection, schedule: Q01DX005 (ip), vehicle: Klucel (hydroxypropylcellulose) (HPC)) 97 % of control; (dose: 120.0 mg/kg/injection, schedule: Q01DX005 (ip), vehicle: Klucel (hydroxypropylcellulose) (HPC)) 98 % of control; (dose: 240.0 mg/kg/injection, schedule: Q01DX005 (ip), vehicle: Klucel (hydroxypropylcellulose) (HPC)) 104 % of control.

Take `Cc1noc(NS(=O)(=O)c2ccc(NCc3c4ccccc4nc4cc(Cl)ccc34)cc2)c1C`: the T/C under setting [2] is 100 % of control, the T/C under setting [3] was 97 % of control and the T/C under setting [4] is 103 % of control.

In the case of `O=S(=O)(O)c1ccc2c(c1)C1C(C3C2C2(Cl)C(Cl)=C(Cl)C3(Cl)C2(Cl)Cl)C2(Cl)C(Cl)=C(Cl)C1(Cl)C2(Cl)Cl` (stereo not given), the T/C by setting is: under setting [5], 108 % of control; under setting [6], 108 % of control; (dose: 200.0 mg/kg/injection, schedule: Q01DX009 (ip), vehicle: saline) 114 % of control.

Turning to `CN(Cc1ccccc1)C(=O)C(=O)c1c[nH]c2ccccc12`, the T/C runs as follows: (dose: 100.0 mg/kg/injection, schedule: Q01DX009 (ip), vehicle: saline with Tween-80) 86 % of control; (dose: 200.0 mg/kg/injection, schedule: Q01DX009 (ip), vehicle: saline with Tween-80) 90 % of control.

Consider `CCCNc1nc2c(c(=O)n1-c1ccccc1)C=C(C(=O)OC)CCN2S(=O)(=O)c1ccc(C)cc1`, for which the T/C is 108 % of control under setting [2], 101 % of control under setting [3] and 105 % of control under setting [4].

Consider `COP(=O)(OC)OC.COP(=O)(OC)OC.COP(=O)(OC)OC.COP(=O)(OC)OC.COP(=O)(OC)OC.[O-][Cl+3]([O-])([O-])O.[Zn+2]`, for which the T/C by setting is: (dose: 25.0 mg/kg/injection, schedule: Q01DX009 (ip), vehicle: saline) 104 % of control and 114 % of control; under setting [5], 106 % of control and 112 % of control (2×); under setting [6], 118 % of control and 119 % of control and 123 % of control.

Take `NC(=S)N/N=C1/CC(=O)N(c2ccccc2)C1c1ccccc1` (stereo not given): the T/C is 103 % of control under setting [2], 98 % of control under setting [3] and 94 % of control under setting [4].
